Patent publication US20170260169A1, “INHIBITORS FOR STEROID RESPONSE ELEMENTS AND RNA POLYMERASE II AND RELATED METHODS” (priority 2007, published 2017)

Assays:
ARE of the PSA promoter = experiment: Quantitative DNase I footprint titration on pAR-PSA fragment; assay type: binding
From the text: Plasmid pAR-PSA was constructed by inserting a 70-bp sequence from the PSA promoter containing the ARE into pUC19 plasmid. […] Detailed experimental protocols are reported elsewhere (44). The proximal PSA promoter contains the ARE [NT] ID NO:15) (FIG. 8A). […] However, 1 is observed to bind the sequence [NT]≈12 bp 5' to the ARE, which is an expected binding site for this molecule.

[1] = test system: binding of LNCaP nuclear extract factors to the ARE site in the PSA promoter; experiment: Electrophoretic mobility shift assay with DHT-stimulated LNCaP nuclear extract; assay type: biochemical; settings: same concentrations
Procedure: containing the PSA promoter ARE (underlined) was end-labeled with ^32P and annealed to its complement. Polyamides 1 and 2 were incubated with the duplex for 3 h in previously optimized buffer conditions (45). Nuclear extract from DHT-treated LNCaP cells (Genetex, San Antonio, Tex.) was then added for an additional 45 min. Complexes were run on a 5% polyacrylamide gel and visualized on a phosphorimager.
The effects of polyamides 1 and 2 on the binding of factors present in the nuclear extract isolated from DHT-stimulated LNCaP cells to the ARE site in the PSA promoter was measured by an electrophoretic mobility shift assay (FIG. 8D).

[2] = test system: PSA mRNA expression in LNCaP cells; experiment: DHT-induced PSA mRNA in LNCaP cells, quantitative real-time RT-PCR; assay type: cell-based
Procedure: LNCaP cells (ATCC) were plated in 24-well plates at a density of 40-50×10^3 cells per well (80-100×10^3 cells per ml) in RPMI medium 1640 (ATCC) supplemented with 10% FBS (Irvine Scientific, Santa Ana, Calif.). After 72 h, the medium was replaced with RPMI medium 1640 containing 10% charcoal stripped FBS with or without polyamides at the designated concentrations. Cells were grown for an additional 48 h and then treated with 1 nM DHT for 16 h. When appropriate, bicalutamide was added 2 h before DHT stimulation. Isolation of RNA and cDNA synthesis was performed as described (21). Quantitative real-time RT-PCR was performed with SYBR Green PCR Master Mix (Applied Biosystems, Foster City, Calif.) on an ABI 7300 instrument. PSA mRNA was measured relative to β-glucuronidase as an endogenous control.

[3] = test system: AR occupancy at the PSA promoter and enhancer; experiment: Chromatin immunoprecipitation with anti-AR, PSA promoter and enhancer; assay type: cell-based
Procedure: LNCaP cells were plated in 15-cm diameter plates at a density of 2×10^6 cells per plate. Media, polyamide treatment, time course, and DHT stimulation were the same as described above. After the 16-h DHT treatment, cells were treated with 1% formaldehyde for 10 min. Chromatin was isolated and sheared. Antibodies to AR (AR-20, Santa Cruz Biotechnology, Santa Cruz, Calif.) were used to immunoprecipitate AR-bound DNA fragments. Crosslinks were reversed, and PCRs using primers targeted to the regions of interest were used to assess enrichment of bound fragments as compared with mock-precipitated (no antibody) controls. PCRs were monitored with SYBR Green PCR Master Mix (Applied Biosystems) on an ABI 7300 instrument. Primer sequences and a more detailed experimental protocol are available upon request.

[4] = test system: FKBP5 mRNA expression in LNCaP cells; experiment: DHT-induced FKBP5 mRNA in LNCaP cells; assay type: cell-based
[5] = test system: AR occupancy at the FKBP5 intronic enhancer; experiment: Chromatin immunoprecipitation with anti-AR, FKBP5 fifth intron enhancer; assay type: cell-based; settings: 10 μM
[6] = test system: transcripts in DHT-stimulated LNCaP cells; experiment: Gene expression with Affymetrix Human Genome U133 Plus 2.0 arrays, DHT-stimulated LNCaP cells; assay type: cell-based
Procedure: LNCaP cells were plated in 12-well plates at a density of 80-100×10^3 cells per well. Media, polyamide treatments, and time courses were the same as described above. Bicalutamide was added 2 h before DHT stimulation. RNA was isolated as described in ref. 21. From this point, experiments were carried out at the Millard and Muriel Jacobs Gene Expression Facility at the California Institute of Technology. Labeled mRNA was hybridized to Affymetrix high-density Human Genome U133 Plus 2.0 arrays according to established protocols. Gene expression was analyzed by using Resolver (Rosetta Biosoftware, Seattle, Wash.). Data were uploaded to the Gene Expression Omnibus repository (accession no. GSE7708).
Global effects of polyamides 1 and 2 and bicalutamide on gene expression in DHT-stimulated LNCaP cells were monitored with Affymetrix (Santa Clara, Calif.) high-density Human Genome U133 Plus 2.0 arrays, which interrogate >50,000 transcripts.

[7] = test system: GILZ mRNA expression in A549 cells; experiment: Dexamethasone-induced GILZ mRNA in A549 cells, quantitative real-time RT-PCR; assay type: cell-based
[8] = 10 μM, + DHT, relative to DHT-induced controls, p ≦ 0.01
[9] = relative to DHT-induced controls, + DHT

With `CN(CCCNC(=O)c1cccc(C(=O)O)c1)CCCNC(=O)c1cc(NC(=O)c2cc(NC(=O)c3nc(NC(=O)c4cc(NC(=O)[C@H](N)CCNC(=O)c5nc(NC(=O)c6cc(NC(=O)c7cc(NC(=O)c8nccn8C)cn7C)cn6C)cn5C)cn4C)cn3C)cn2C)cn1C` [Polyamide 2] the “binding in the footprinted region” value (ARE of the PSA promoter) was “no measurable binding”, the Ka (ARE of the PSA promoter; ARE consensus half-site 5′-AGAACA-3′) was under 1e+07 M⁻¹ and the “effect on binding to the labeled duplex” value [1] was “minimal effect”. For the same compound, the “effect on DHT-induced PSA mRNA” value [2] was “more modest effect”, the “effects on cell growth” value ([2]; LNCaP, over the course of the experiment) was “no obvious detrimental effects on cell growth” and the “occupancy of AR at the PSA promoter and enhancer” value ([3]; 1 μM as printed) was “minimal effect”. The “AR occupancy at the PSA promoter and enhancer” value ([3]; 10 μM, FIG. 9 legend) was “not”, the “effect on FKBP5 expression” value [4] was “minimal effect” and the “occupancy of AR at the FKBP5 intronic enhancer” value [5] was “no measurable effect”. For the same compound, the “Number of transcripts down-regulated (fold change ≦ −2.0)” value [6, 8] was 284, the “Number of transcripts down-regulated (fold change ≦ −4.0)” value [6, 8] was 32 and the “Number of transcripts up-regulated (fold change ≧ 2.0)” value [6, 8] was 95. For the same compound, the “Number of transcripts up-regulated (fold change ≧ 4.0)” value [6, 8] was 11, the “number of transcripts affected by at least 2-fold” value ([6]; 10 μM, P≦0.01, vs DHT-induced controls) was 379 and the “share of interrogated transcripts affected” value ([6]; 10 μM, at least 2-fold) was under 1%. For the same compound, the “number of the 88 DHT-repressed transcripts derepressed at least 2-fold” value ([6]; P≦0.01) was 3, the “number of the 199 DHT-induced transcripts inhibited at least 2-fold” value ([6]; P≦0.01) was 20 and the “Fold-change of FKBP5” value [6, 9] was 1.5. For the same compound, the “Fold-change of KLK2” value [6, 9] was −1.1, the “Fold-change of KLK3 (PSA)” value [6, 9] was −1.4 and the “Fold-change of TMPRSS2” value [6, 9] was −1.4. For the same compound, the “effect on GILZ mRNA induction” value [7] was “more modest effect”.
